Assay results taken from ChEMBL document CHEMBL4052650, “Halogen-substituted catechol bisphosphates are potent and selective inhibitors of the transcription factor STAT5b” (Bioorg Med Chem, 2017).

Legend:
Homo sapiens = species: Homo sapiens; assay: Selectivity factor, ratio of IC50 for displacement of 5-carboxyfluorescein-GY(PO3H2)LVLDKW from STAT5A SH2 domain (unknown origin) to IC50 for displacement of 5-carboxyfluorescein-GY(PO3H2)LVLDKW from STAT5B SH2 domain (unknown origin)
[1] = target: T1, Signal transducer and activator of transcription 5B (Homo sapiens, UniProt P51692); assay: Displacement of 5-carboxyfluorescein-GY(PO3H2)LVLDKW from STAT5B SH2 domain (unknown origin) pretreated for 1 hr followed by fluorescent tracer addition after 1 hr by fluorescence polarization assay
T1 sequence (P51692 whole entry): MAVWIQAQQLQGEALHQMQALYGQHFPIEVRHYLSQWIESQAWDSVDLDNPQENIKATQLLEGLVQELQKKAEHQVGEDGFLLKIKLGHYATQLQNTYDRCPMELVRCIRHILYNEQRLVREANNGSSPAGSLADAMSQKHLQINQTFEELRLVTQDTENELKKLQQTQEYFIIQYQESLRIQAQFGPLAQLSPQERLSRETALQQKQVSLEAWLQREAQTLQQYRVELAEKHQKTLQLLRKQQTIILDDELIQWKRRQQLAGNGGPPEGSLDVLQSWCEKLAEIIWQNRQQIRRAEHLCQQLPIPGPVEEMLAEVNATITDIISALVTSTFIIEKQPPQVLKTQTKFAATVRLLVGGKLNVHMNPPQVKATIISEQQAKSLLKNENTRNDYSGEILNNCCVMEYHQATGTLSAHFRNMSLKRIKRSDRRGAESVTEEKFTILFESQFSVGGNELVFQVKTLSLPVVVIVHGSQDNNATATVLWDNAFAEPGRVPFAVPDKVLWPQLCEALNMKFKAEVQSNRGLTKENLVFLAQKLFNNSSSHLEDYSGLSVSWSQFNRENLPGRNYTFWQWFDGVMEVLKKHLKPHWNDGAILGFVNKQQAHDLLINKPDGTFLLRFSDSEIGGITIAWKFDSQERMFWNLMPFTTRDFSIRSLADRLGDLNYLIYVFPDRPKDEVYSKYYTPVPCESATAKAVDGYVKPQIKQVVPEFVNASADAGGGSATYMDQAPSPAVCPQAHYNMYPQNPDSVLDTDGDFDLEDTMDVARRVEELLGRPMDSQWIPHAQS

[2] = target: T2, Signal transducer and activator of transcription 5A (Homo sapiens, UniProt P42229); assay: Displacement of 5-carboxyfluorescein-GY(PO3H2)LVLDKW from STAT5A SH2 domain (unknown origin) pretreated for 1 hr followed by fluorescent tracer addition after 1 hr by fluorescence polarization assay
T2 sequence (P42229 whole entry): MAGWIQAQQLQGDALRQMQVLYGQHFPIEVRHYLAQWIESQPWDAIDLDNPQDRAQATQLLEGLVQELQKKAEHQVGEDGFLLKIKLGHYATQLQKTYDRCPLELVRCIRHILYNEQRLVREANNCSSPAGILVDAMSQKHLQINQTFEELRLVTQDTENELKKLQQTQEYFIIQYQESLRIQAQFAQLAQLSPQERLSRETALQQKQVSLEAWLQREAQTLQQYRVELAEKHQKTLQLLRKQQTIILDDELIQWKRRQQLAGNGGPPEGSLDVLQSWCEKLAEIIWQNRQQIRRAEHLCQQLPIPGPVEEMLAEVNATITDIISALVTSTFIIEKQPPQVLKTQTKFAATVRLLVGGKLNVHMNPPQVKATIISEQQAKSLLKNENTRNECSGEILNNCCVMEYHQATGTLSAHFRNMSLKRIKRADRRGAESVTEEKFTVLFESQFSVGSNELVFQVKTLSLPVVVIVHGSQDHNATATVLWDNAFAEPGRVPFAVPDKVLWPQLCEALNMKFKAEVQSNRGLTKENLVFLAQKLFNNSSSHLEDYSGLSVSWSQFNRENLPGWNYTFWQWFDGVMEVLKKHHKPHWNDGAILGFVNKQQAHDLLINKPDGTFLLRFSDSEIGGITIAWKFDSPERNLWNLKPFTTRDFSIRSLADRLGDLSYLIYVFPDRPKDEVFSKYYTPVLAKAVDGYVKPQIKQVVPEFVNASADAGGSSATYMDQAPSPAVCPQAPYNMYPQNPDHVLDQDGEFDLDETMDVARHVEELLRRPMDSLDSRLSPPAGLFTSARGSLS

Ratio IC50 (Homo sapiens) | IC50 [1] [µM] | IC50 [2] [µM] | SMILES
19 | 0.62 | 11.9 | O=C(COc1ccc(C(=O)Nc2cccc(F)c2)cc1)NCc1ccc(OP(=O)(O)O)c(OP(=O)(O)O)c1
37 | 0.29 | 10.6 | O=C(COc1ccc2cc(C(=O)Nc3cccc(Br)c3)ccc2c1)NCc1ccc(OP(=O)(O)O)c(OP(=O)(O)O)c1
16 | 0.66 | 10.5 | O=C(COc1ccc(C(=O)Nc2cccc(Br)c2)cc1)NCc1ccc(OP(=O)(O)O)c(OP(=O)(O)O)c1
22 | 0.33 | 7.4 | O=C(COc1ccc(C(=O)Nc2ccc(Cl)cc2)cc1)NCc1ccc(OP(=O)(O)O)c(OP(=O)(O)O)c1
33 | 0.22 | 7.2 | O=C(COc1ccc2cc(C(=O)Nc3ccc(F)cc3)ccc2c1)NCc1ccc(OP(=O)(O)O)c(OP(=O)(O)O)c1
33 | 0.27 | 8.9 | O=C(COc1ccc2cc(C(=O)Nc3ccc(Cl)cc3)ccc2c1)NCc1ccc(OP(=O)(O)O)c(OP(=O)(O)O)c1
22 | 0.39 | 8.6 | O=C(COc1ccc(C(=O)Nc2ccc(Br)cc2)cc1)NCc1ccc(OP(=O)(O)O)c(OP(=O)(O)O)c1
28 | 0.26 | 7.3 | O=C(COc1ccc2cc(C(=O)Nc3cccc(Cl)c3)ccc2c1)NCc1ccc(OP(=O)(O)O)c(OP(=O)(O)O)c1
20 | 0.46 | 9.1 | O=C(COc1ccc(C(=O)Nc2cccc(Cl)c2)cc1)NCc1ccc(OP(=O)(O)O)c(OP(=O)(O)O)c1
24 | 0.35 | 8.3 | O=C(COc1ccc(C(=O)Nc2ccc(F)cc2)cc1)NCc1ccc(OP(=O)(O)O)c(OP(=O)(O)O)c1
32 | 0.24 | 7.6 | O=C(COc1ccc2cc(C(=O)Nc3ccc(Br)cc3)ccc2c1)NCc1ccc(OP(=O)(O)O)c(OP(=O)(O)O)c1
35 | 0.28 | 9.7 | O=C(COc1ccc(C(=O)Nc2ccccc2)cc1)NCc1ccc(OP(=O)(O)O)c(OP(=O)(O)O)c1
36 | 0.234 | 8.4 | O=C(COc1ccc2cc(C(=O)Nc3cccc(F)c3)ccc2c1)NCc1ccc(OP(=O)(O)O)c(OP(=O)(O)O)c1
